Measured values published in patent US20250032524A1, “BROAD SPECTRUM AMINOGLYCOSIDES AND USES THEREOF” (REVAGENIX, INC., priority 2022, published 2025).
Read-outs that look alike come from different tables or passages of the source.

Key:
Test in all cases: MIC broth microdilution (CLSI)
Format in all cases: cell-based
[1] = tested on: A. baumannii; conditions: Acinetobacter baumannii
Description: (§1) Minimum inhibitory concentrations for representative example compounds herein were determined by a broth microdilution method in accordance with the Clinical and Laboratory Standards Institute (CLSI) guidelines. In brief, organism suspensions were adjusted to a 0.5 McFarland standard to yield a final inoculum between 3×10^5 and 7×10^5 colony-forming units (CFU)/mL. The inoculum was prepared by suspension of a colony from an agar plate that was prepared the previous day. Compound dilutions and inoculum were prepared in sterile, cation adjusted Mueller-Hinton Broth (Beckton Dickinson).
(§2) Bacteria were suspended in sterile saline and added to each assay plate to obtain a final concentration of 5×10^5 CFU/mL. An inoculum volume of 100 μL was added to wells containing 100 μL of broth with 2-fold serial dilutions of the test compound. All inoculated microdilution trays were incubated in ambient air at 35° C. for 18-24 hours. Following incubation, the lowest concentration of the compound that prevented visible growth (OD 600 nm<0.05) is recorded was the MIC. […] Performance of the assay was monitored by the use of laboratory quality-control strains and a standard compound with a defined MIC spectrum (neomycin), in accordance with CLSI guidelines.

[2] = tested on: C. freundii; conditions: Citrobacter freundii, read-out: Activity (MIC)
Description: as §1, §2

[3] = tested on: E. cloacae; conditions: Enterobacter cloacae; strain AECL1089, MDR Clinical isolate (CDC CRE panel), CDC AR Bank 0154
Description: as §1, §2

[4] = tested on: E. coli; conditions: Escherichia coli
Description: as §1, §2

[5] = tested on: K. aerogenes; conditions: Klebsiella aerogenes; strain AEAE1042, MDR Clinical isolate (CDC CRE panel), CDC AR Bank 0161
Description: as §1, §2

[6] = tested on: K. pneumoniae
Description: as §1, §2

[7] = tested on: P. aeruginosa; conditions: Pseudomonas aeruginosa
Description: as §1, §2

[8] = tested on: P. mirabilis; conditions: Proteus mirabilis; strain APMI1048, MDR Clinical isolate (CDC CRE panel), CDC AR Bank 0159
Description: as §1, §2

[9] = tested on: S. aureus; conditions: for MIC: Staphylococcus aureus
Description: as §1, §2

[10] = tested on: S. enterica; conditions: Salmonella enterica, read-out: Activity (MIC)
Description: as §1, §2

## C[C@H](N)[C@@H]1CC[C@@H](N)[C@@H](O[C@@H]2[C@@H](N)[C@H](O)[C@@H](NC(=O)[C@@H](O)CCN)[C@H](O)[C@H]2O[C@@H]2O[C@H](CO)[C@@H](O[C@H]3O[C@@H](CN)[C@@H](O)[C@H](O)[C@H]3N)[C@H]2O)O1 [Compound 6, (S)-4-Amino-N-((1R,2S,3S,4R,5R,6S)-3-Amino-4-(((2R,3R,6S)-3-Amino-6-((S)-1-Aminoethyl)Tetrahydro-2H-Pyran-2-Yl)Oxy)-5-(((2S,3R,4S,5R)-4-(((2R,3R,4R,5S,6S)-3-Amino-6-(Aminomethyl)-4,5-Dihydroxytetrahydro-2H-Pyran-2-Yl)Oxy)-3-Hydroxy-5-(Hydroxymethyl)Tetrahydrofuran-2-Yl)Oxy)-2,6-Dihydroxycyclohexyl)-2-Hydroxybutanamide]
[1]; read-out: Activity (MIC), strain NABA0007, ΔadeJK efflux
  MIC: < 16 µg/mL
[1]; read-out: Activity (MIC), strain NABA1427, MDR Clinical isolate
  MIC: < 16 µg/mL
[1]; read-out: Activity (MIC), strain NABA1433, MDR Clinical isolate
  MIC: < 16 µg/mL
[1]; read-out: Activity (MIC), strain NABA1434, MDR Clinical isolate
  MIC: < 16 µg/mL
[1]; read-out: Activity (MIC), strain NABA1436, MDR Clinical isolate
  MIC: < 16 µg/mL
[1]; read-out: Activity (MIC), strain NABA1437, MDR Clinical isolate
  MIC: < 16 µg/mL
[1]; read-out: Activity (MIC), strain NABA1438, MDR Clinical isolate
  MIC: < 16 µg/mL
[1]; read-out: Activity (MIC), strain NABA1439, MDR Clinical isolate
  MIC: < 16 µg/mL
[1]; read-out: Activity (MIC), strain NABA1448, MDR Clinical isolate
  MIC: < 16 µg/mL
[1]; read-out: Activity (MIC), strain NABA1449, MDR Clinical isolate
  MIC: < 16 µg/mL
[1]; read-out: Activity (MIC), strain NABA1450, MDR Clinical isolate
  MIC: < 16 µg/mL
[1]; strain NABA0006, WT parent, read-out: Activity (MIC)
  MIC: < 16 µg/mL
[1]; strain NABA0020, AME negative strain, read-out: Activity (MIC)
  MIC: < 16 µg/mL
[2]
  MIC: < 16 µg/mL
[3]
  MIC: < 16 µg/mL
[4]; read-out: Activity (MIC), strain AECO1225, MDR Clinical isolate (CDC CRE panel), CDC AR Bank 0118
  MIC: < 16 µg/mL
[4]; read-out: Activity (MIC), strain AECO1226, MDR Clinical isolate (CDC CRE panel), CDC AR Bank 0119
  MIC: < 16 µg/mL
[4]; read-out: Activity (MIC), strain AECO1227, MDR Clinical isolate (CDC CRE panel), CDC AR Bank 0128
  MIC: < 16 µg/mL
[4]; read-out: Activity (MIC), strain NECO0003, ΔtolC
  MIC: < 16 µg/mL
[4]; read-out: Activity (MIC), strain NECO0245, ArmA
  MIC: < 16 µg/mL
[4]; strain NECO0001, WT QC, read-out: Activity (MIC)
  MIC: < 16 µg/mL
[4]; strain NECO0002, WT, read-out: Activity (MIC)
  MIC: < 16 µg/mL
[4]; strain NECO0243, empty vector, read-out: Activity (MIC)
  MIC: < 16 µg/mL
[4]; strain NECO0244, AAC(6')-Ib, read-out: Activity (MIC)
  MIC: < 16 µg/mL
[4]; strain NECO0289, APH(3')-Ia, read-out: Activity (MIC)
  MIC: < 16 µg/mL
[4]; strain NECO0302, AAC(3)-IIa, read-out: Activity (MIC)
  MIC: < 16 µg/mL
[4]; strain NECO0350, AAC(2')-I, read-out: Activity (MIC)
  MIC: < 16 µg/mL
[4]; strain NECO0359, ANT(4')-Ia, read-out: Activity (MIC)
  MIC: < 16 µg/mL
[5]
  MIC: < 16 µg/mL
[6]; Klebsiella pneumoniae, strain AKPN1246, MDR Clinical isolate (CDC CRE panel), CDC AR Bank 0139
  MIC: < 16 µg/mL
[6]; strain AKPN1250, MDR Clinical isolate (CDC CRE panel), CDC AR Bank 0143
  Activity (MIC): + (MIC threshold for positive activity (+) is ≤16 μg/mL)
[6]; strain AKPN1253, MDR Clinical isolate (CDC CRE panel), CDC AR Bank 0148
  Activity (MIC): + (MIC threshold for positive activity (+) is ≤16 μg/mL)
[6]; strain AKPN1255, MDR Clinical isolate (CDC CRE panel), CDC AR Bank 0153
  Activity (MIC): + (MIC threshold for positive activity (+) is ≤16 μg/mL)
[7]; read-out: Activity (MIC), strain NPAE0006, Efflux KO, Aph(3')-IIb
  MIC: < 16 µg/mL
[7]; read-out: Activity (MIC), strain NPAE0010, MexXY over-expressed, Aph(3')-IIb
  MIC: < 16 µg/mL
[7]; read-out: Activity (MIC), strain NPAE1288, MDR Clinical isolate
  MIC: < 16 µg/mL
[7]; read-out: Activity (MIC), strain NPAE1293, MDR Clinical isolate
  MIC: < 16 µg/mL
[7]; read-out: Activity (MIC), strain NPAE1299, MDR Clinical isolate
  MIC: < 16 µg/mL
[7]; read-out: Activity (MIC), strain NPAE1302, MDR Clinical isolate
  MIC: < 16 µg/mL
[7]; read-out: Activity (MIC), strain NPAE1303, MDR Clinical isolate
  MIC: < 16 µg/mL
[7]; read-out: Activity (MIC), strain NPAE1308, MDR Clinical isolate
  MIC: > 16 µg/mL
[7]; read-out: Activity (MIC), strain NPAE1310, MDR Clinical isolate
  MIC: < 16 µg/mL
[7]; read-out: Activity (MIC), strain NPAE1313, MDR Clinical isolate
  MIC: < 16 µg/mL
[7]; read-out: Activity (MIC), strain NPAE1316, MDR Clinical isolate
  MIC: < 16 µg/mL
[7]; read-out: Activity (MIC), strain NPAE1323, MDR Clinical isolate
  MIC: < 16 µg/mL
[7]; strain NPAE0001, WT Aph(3')-IIb, QC, read-out: Activity (MIC)
  MIC: < 16 µg/mL
[7]; strain NPAE0002, WT Aph(3')-IIb, read-out: Activity (MIC)
  MIC: < 16 µg/mL
[7]; strain NPAE0359, aph(3')-IIb KO (tetR), read-out: Activity (MIC)
  MIC: < 16 µg/mL
[8]
  MIC: < 16 µg/mL
[9]; ATCC29213, strain NSAU001, wild-type, QC, ATCC 29213
  MIC: < 16 µg/mL
[9]; strain NSAU1004, MDR Clinical isolate
  MIC: < 16 µg/mL
[9]; strain NSAU1015, MDR Clinical isolate
  Activity (MIC): + (MIC threshold for positive activity (+) is ≤16 μg/mL)
[9]; strain NSAU1023, MDR Clinical isolate
  Activity (MIC): + (MIC threshold for positive activity (+) is ≤16 μg/mL)
[9]; strain NSAU1063, MDR Clinical isolate
  Activity (MIC): + (MIC threshold for positive activity (+) is ≤16 μg/mL)
[10]
  MIC: < 16 µg/mL
